Measured values as given in patent US20220096485A1, “FUNCTIONALIZED PYRANO[2,3-D]PYRIMIDIN-7-ONE DERIVATIVES AND METHODS FOR THEIR PREPARATION AND USE” (The Texas A&M University System, priority 2016, published 2022).

biological target: Abelson kinase 2 (ABL2) (Homo sapiens, UniProt P42684); assay: Eurofins Arg (ABL2) Human TK Kinase Binding Assay
Sequence (P42684 whole entry): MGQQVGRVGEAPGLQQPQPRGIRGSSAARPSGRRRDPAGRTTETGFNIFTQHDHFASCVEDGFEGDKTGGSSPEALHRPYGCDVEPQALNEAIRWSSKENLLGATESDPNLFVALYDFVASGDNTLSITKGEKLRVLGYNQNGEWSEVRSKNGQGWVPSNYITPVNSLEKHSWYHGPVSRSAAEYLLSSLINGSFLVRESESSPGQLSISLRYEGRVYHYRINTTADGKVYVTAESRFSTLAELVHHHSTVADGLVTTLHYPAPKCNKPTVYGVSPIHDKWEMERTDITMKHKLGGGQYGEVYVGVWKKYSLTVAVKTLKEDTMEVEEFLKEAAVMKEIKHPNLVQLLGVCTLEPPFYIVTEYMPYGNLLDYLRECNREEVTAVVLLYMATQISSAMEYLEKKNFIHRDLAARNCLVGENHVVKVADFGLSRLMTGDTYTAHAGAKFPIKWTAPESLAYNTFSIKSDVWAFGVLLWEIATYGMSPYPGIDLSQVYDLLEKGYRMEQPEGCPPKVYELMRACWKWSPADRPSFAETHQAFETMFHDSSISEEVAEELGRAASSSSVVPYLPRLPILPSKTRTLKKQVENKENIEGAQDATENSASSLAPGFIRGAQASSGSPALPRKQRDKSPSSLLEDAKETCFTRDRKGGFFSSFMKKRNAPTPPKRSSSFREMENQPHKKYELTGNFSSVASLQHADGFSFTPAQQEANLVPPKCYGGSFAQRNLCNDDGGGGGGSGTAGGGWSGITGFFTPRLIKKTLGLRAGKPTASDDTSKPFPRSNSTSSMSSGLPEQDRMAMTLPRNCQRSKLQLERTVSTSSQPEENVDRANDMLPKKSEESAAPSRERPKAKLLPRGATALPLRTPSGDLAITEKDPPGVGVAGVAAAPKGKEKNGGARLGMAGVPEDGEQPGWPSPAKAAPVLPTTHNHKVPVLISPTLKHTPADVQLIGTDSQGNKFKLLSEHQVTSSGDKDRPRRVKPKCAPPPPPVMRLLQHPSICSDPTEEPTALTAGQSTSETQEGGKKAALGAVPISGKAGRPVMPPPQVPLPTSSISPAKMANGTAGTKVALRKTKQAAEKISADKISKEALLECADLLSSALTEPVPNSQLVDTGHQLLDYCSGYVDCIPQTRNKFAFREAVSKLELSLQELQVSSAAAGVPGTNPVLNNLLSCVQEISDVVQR

SMILES | Kd
Nc1cccc(Nc2ncc3cc(-c4c(Cl)cccc4Cl)c(=O)oc3n2)c1 [Compound 12c, 2-(3-Aminophenylamino)-6-(2,6-dichlorophenyl)-7H-pyrano[2,3-d]pyrimidin-7-one] | 1.1 nM
Cc1cc(Nc2ncc3cc(-c4c(Cl)cccc4Cl)c(=O)oc3n2)ccc1F [Compound 12a, 2-(4-Fluoro-3-methylphenylamino)-6-(2,6-dichlorophenyl)-7H-pyrano[2,3-d]pyrimidin-7-one] | 3.9 nM
CSc1cccc(Nc2ncc3cc(-c4c(Cl)cccc4Cl)c(=O)oc3n2)c1 [Compound 12b, 2-(3-(Methylthio)phenylamino)-6-(2,6-dichlorophenyl)-7H-pyrano[2,3-d]pyrimidin-7-one] | 3.8 nM
COc1cccc(Nc2ncc3cc(-c4c(Cl)cccc4Cl)c(=O)oc3n2)c1 [Compound 12e, 6-(2,6-Dichlorophenyl)-2-(3-methoxyphenylamino)-7H-pyrano[2,3-d]pyrimidin-7-one] | 1.3 nM
CC(=O)Nc1cccc(Nc2ncc3cc(-c4c(Cl)cccc4Cl)c(=O)oc3n2)c1 [Compound 12g, N-(3-(6-(2,6-Dichlorophenyl)-7-oxo-7H-pyrano[2,3-d]pyrimidine-2-ylamino)-phenyl)-acetamide] | 1.1 nM
CN(C)c1ccc(Nc2ncc3cc(-c4c(Cl)cccc4Cl)c(=O)oc3n2)cc1 [Compound 12f, 6-(2,6-Dichlorophenyl)-2-(4-(dimethylamino)phenylamino)-7H-pyrano[2,3-d]pyrimidine-7-one] | 6.9 nM
N#Cc1cccc(Nc2ncc3cc(-c4c(Cl)cccc4Cl)c(=O)oc3n2)c1 [Compound 12d, 3-(6-(2,6-Dichlorophenyl)-7-oxo-7H-pyrano[2,3-d]pyrimidin-2-ylamino)benzonitrile] | 4.5 nM

Now from value to compound:

Kd | SMILES
130 nM | Nc1cccc(Nc2ncc3cc(-c4ccccc4)c(=O)oc3n2)c1 [Compound 19c, 2-(3-Aminophenylamino)-6-phenyl-7H-pyrano[2,3-d]pyrimidin-7-one]
1.3 nM | CC(=O)Nc1cccc(Nc2ncc3cc(-c4c(C)cccc4C)c(=O)oc3n2)c1 [Compound 19b, N-(3-(6-(2,6-Dimethylphenyl)-7-oxo-7H-pyrano[2,3-d]pyrimidine-2-ylamino)phenyl)-acetamide]
1.3 nM | Cc1cccc(C)c1-c1cc2cnc(Nc3cccc(N)c3)nc2oc1=O [Compound 19a, 2-(3-Aminophenylamino)-6-(2,6-dimethylphenyl)-7H-pyrano[2,3-d]pyrimidine-7-one]
